The text below walks through data of patent publication EP1424337A1, “4-hydroxy derivatives of 5,6,9,10-tetrahydro-10-((2-methyl-1h-imidazol-1-yl)methyl)-4h-pyrido-(3,2,1-jk)-carbazol-11(8h)-one” (Solvay Pharmaceuticals GmbH, priority 2002, dated 2004).

SMILES strings stand for the structures. pKd, pKi: −log10 of the molar value.

The target in one test is T1, serotonin 5-HT3 receptor (Mus musculus, UniProt P23979).
T1 construct: the 5-HT3 receptor which was endogenously expressed in the human cell line N1E-115; endogenous in cells; host or cells: N1E-115 neuroblastoma cells (membrane suspensions)
T1 sequence (P23979 24-483 isoform P23979-2 limits assumed): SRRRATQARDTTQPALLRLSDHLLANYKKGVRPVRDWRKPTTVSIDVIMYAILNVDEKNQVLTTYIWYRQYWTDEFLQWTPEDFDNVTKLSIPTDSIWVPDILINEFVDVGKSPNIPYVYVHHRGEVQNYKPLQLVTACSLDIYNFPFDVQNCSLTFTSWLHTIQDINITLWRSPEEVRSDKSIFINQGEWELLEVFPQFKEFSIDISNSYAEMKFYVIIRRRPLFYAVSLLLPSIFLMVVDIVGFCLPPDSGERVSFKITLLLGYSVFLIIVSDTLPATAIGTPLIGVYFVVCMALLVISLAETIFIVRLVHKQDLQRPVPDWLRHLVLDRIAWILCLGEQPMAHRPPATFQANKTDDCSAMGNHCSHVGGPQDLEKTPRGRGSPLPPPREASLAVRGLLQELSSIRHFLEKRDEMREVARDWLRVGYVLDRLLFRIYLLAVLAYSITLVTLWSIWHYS
The experiment in a line: Radioligand binding assay with [3H]-GR-65630 on membranes of cell line N1E-115. Further details: species or system human. Particulars: for pKi: competition with [^3H]-GR-65630 (0.35 nM), N1E-115 membranes, 20 mM HEPES pH 7.4, 150 mM NaCl, 25°C, 60 min, Cheng and Prusoff, read-out: Kl. How it is done:
1. Affinity of 4-hydroxy derivatives of 5,6,9,10-tetrahydro-10-[(2-methyl-1H-imidazol-1-yl)methyl]-4H pyrido-[3,2,1-jk]-carbazol-11(8H)-one of formulas Ib - le for the human serotonin 5-HT3 receptor
In this test method, the ability of the 4-hydroxy derivatives of 5,6,9,10-tetrahydro-10-[(2-methyl-1H-imidazol-1-yl)methyl]-4H-pyrido-[3,2,1-jk]-carbazol-11(8H)-one of formulas Ib - le was assessed, for binding to the 5-HT3 receptor which was endogenously expressed in the human cell line N1E-115 and using tritiated GR-65630 as a radioligand.
The binding assays were carried out using the method of Hoyer and Neijt (see Hoyer, D., Neijt H.C., Mol. Pharmacol. 33, (1988) 303-309). Tritiated GR-65630 was used as radioligand and membrane suspensions, prepared in a known manner from the human neuroblastoma cell line N1E-115. Compounds have been tested for binding in various concentrations to compete with [^3H]-GR-65630 (0.35 nM final concentration) in 20 mM HEPES pH 7.4, containing 150 mM NaCl at 25°C for 60 min. Thereafter, the membranes were filtrated over glass fiber filters and bound radioactivity was counted by liquid scintillation counting. Each concentration was tested in triplicate, nonspecific binding was assessed by incubation with the reference compound MDL-72222 (1 µM).
Plotting the amount of bound radioactivity against the concentration of the competing compound allowed estimation of an IC50 value, i.e. that concentration at which 50% of the control radioligand binding remains. […]

For another test, the target named is T2, 5-HT3 receptor (Cavia porcellus, UniProt O70212).
T2 construct: lleal segments were isolated and mounted in an organ bath; from tissue; host or cells: isolated guinea-pig ileal segments (female, Pirbright White)
T2 sequence (O70212 20-490): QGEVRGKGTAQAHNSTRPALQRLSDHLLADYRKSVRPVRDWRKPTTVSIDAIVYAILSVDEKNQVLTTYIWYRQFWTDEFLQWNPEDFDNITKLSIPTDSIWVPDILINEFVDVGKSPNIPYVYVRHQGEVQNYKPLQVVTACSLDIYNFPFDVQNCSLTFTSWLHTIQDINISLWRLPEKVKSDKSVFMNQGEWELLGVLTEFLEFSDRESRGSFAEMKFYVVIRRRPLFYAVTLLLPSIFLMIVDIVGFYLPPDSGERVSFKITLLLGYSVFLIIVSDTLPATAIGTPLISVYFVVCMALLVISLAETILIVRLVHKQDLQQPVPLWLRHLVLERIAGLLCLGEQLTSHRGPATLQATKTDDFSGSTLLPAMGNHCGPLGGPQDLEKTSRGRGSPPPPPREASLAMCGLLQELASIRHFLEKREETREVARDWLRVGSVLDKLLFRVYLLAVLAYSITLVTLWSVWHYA
In words: 2-methyl-5-HT induced contractions in isolated guinea-pig ileal preparations (5-HT3 receptor antagonism, Schild plot). Conditions: for effect on concentration response curve for 2-methyl-5-HT: bath application; for effect on concentration response curve for 2-methyl-5-HT / Kb: guinea-pig ileum; for Kb: agonist 2-methyl-5-HT 0.32 - 100 µM, bath concentrations 0.1 and 1 µM (Ib), 1 and 3 µM (Ic), 5-6 preparations, read-out: pA2 (converted). Also on record: species or system guinea pigs. The source says: 2. Effect of mammalian cilansetron 4-hydroxymetabolites from dog's urine of formulas Ib and Ic on 2-methyl-5-HT induced contractions in ileal preparations isolated from guinea pigs (5-HT3 receptor antagonism)
In this test method, the antagonistic potency of the mammalian cilansetron 4-hydroxymetabolites from dog's urine of formulas Ib and Ic was investigated by determining the shift of the concentration-response curve for the specific 5-HT3 receptor agonist 2-methyl-5-HT in preparations from the guinea-pig ileum.
Guinea-pigs (female, Pirbright White, about 300 g) were killed by a blow on the head and bled from the carotid arteries. lleal segments were isolated and mounted in an organ bath containing a salt solution continuously gassed with carbogen and kept at 37 °C. The composition of the solution in mM was 136.9 NaCl, 2.7 KCI, 1.77 CaCl2, 0.8 MgCl2, 0.6 NaH2PO4, 11.9 NaHCO3, and 5 glucose. The preparations were preloaded with 10 mN and allowed to equilibrate for 90 - 120 minutes (= min.). The concentration response curves for 2-methyl-5-HT (0.32 - 100 µM, by company Sigma) were constructed non-cumulatively to avoid desensitization. The measurement was made at the point of maximal contraction and the agonist was washed out as soon as peak response was reached. A first 2-methyl-5-HT curve was followed by another concentration response curve in the presence of one concentration of the antagonist. The response to the highest concentration of 2-methyl-5-HT obtained in the first concentration response curve was set to 100 %. For each compound at least two concentrations of the antagonist were tested in different sets. Data from 5-6 preparations were used for each concentration response curve. Schild plots were calculated and the pA2 value was determined. The pA2-value is the negative logarithm of the molar concentration of the antagonist which causes a rightward shift of the concentration response curve for the agonist by a factor of 2. The higher the pA2-value is, the higher is the potency of a compound.
All test compounds were initially dissolved in dimethylsulfoxide (= DMSO) at concentrations of 10^-2 mol/I and were further diluted with water. The final bath concentrations for the different compounds used were 0.1 and 1 µM for compound of formula Ib and 1 and 3 µM for compound of formula Ic. […]
In this test method, the 5-HT3 agonist 2-methyl-5-HT evoked dose-dependent contractions of the guinea-pig ileum with a pD2-value of 5.2. The pD2-value is the negative logarithm of the molar […].

For `Cc1nccn1C[C@@H]1CCc2c(c3cccc4c3n2CC[C@@H]4O)C1=O` [Id], at serotonin 5-HT3 receptor, the pKi was 8.06. For orientation: pKd means the Kd on a negative log10 scale, so that one unit is a factor of ten. Consider `Cc1[nH]cnc1CCC(=O)c1cn(C)c2ccccc12` [[^3H]-GR-65630, reference compound], for which the pKd on serotonin 5-HT3 receptor (radioligand, established separately, read-out: Kd, the affinity constant for [^3H]-GR-65630) is 9.48. Consider `Cc1[nH]c2ccc(O)cc2c1CCN` [2-methyl-5-HT, reference compound], for which the EC50 on 5-HT3 receptor (agonist-evoked dose-dependent contractions of the guinea-pig ileum, read-out: pD2-value (converted)) was 6310 nM. As for `Cc1nccn1C[C@H]1CCc2c(c3cccc4c3n2CC[C@@H]4O)C1=O` [Ib], the pKi on serotonin 5-HT3 receptor is 8.52. In addition, on 5-HT3 receptor, the “effect on concentration response curve for 2-methyl-5-HT” value is on record as “dose-dependent shift of the concentration response curve to the right” and the Kb was 186 nM.

Consider `Cc1nccn1C[C@@H]1CCc2c(c3cccc4c3n2CC[C@H]4O)C1=O` [le], for which the pKi on serotonin 5-HT3 receptor is 7.42. As to `Cc1nccn1C[C@H]1CCc2c(c3cccc4c3n2CC[C@H]4O)C1=O` [Ic], the pKi at serotonin 5-HT3 receptor was 8.00. Moreover, at 5-HT3 receptor, the “effect on concentration response curve for 2-methyl-5-HT” value is recorded as “dose-dependent shift of the concentration response curve to the right” and the Kb is 355 nM.
